# Test results taken from the NIST ThermoML archive (doi:10.1016/j.jct.2007.07.002).
# Numbers after ± are expanded uncertainties.
# Settings: Gas, double Helmholtz acoustic resonator
smiles,measurement,setting,value
N [ammonia],kinematic viscosity,"300 K, 223.53 kPa",6.47e-06 ± 1.4e-07 m2/s
same,speed of sound,"300 K, 223.53 kPa",431 ± 0.26 m/s
same,kinematic viscosity,"300 K, 259.87 kPa",5.47e-06 ± 3.2e-07 m2/s
same,speed of sound,"300 K, 259.87 kPa",429.55 ± 0.26 m/s
same,kinematic viscosity,"300 K, 329.51 kPa",4.32e-06 ± 5.2e-08 m2/s
same,speed of sound,"300 K, 329.51 kPa",428.07 ± 0.26 m/s
same,kinematic viscosity,"300 K, 361.99 kPa",3.95e-06 ± 7.2e-08 m2/s
same,speed of sound,"300 K, 361.99 kPa",426.77 ± 0.26 m/s
same,kinematic viscosity,"300 K, 447.86 kPa",3.14e-06 ± 3.8e-08 m2/s
same,speed of sound,"300 K, 447.86 kPa",424.67 ± 0.26 m/s
same,kinematic viscosity,"300 K, 465.77 kPa",3.02e-06 ± 5.4e-08 m2/s
same,speed of sound,"300 K, 465.77 kPa",423.73 ± 0.26 m/s
same,kinematic viscosity,"300 K, 568.68 kPa",2.45e-06 ± 2.9e-08 m2/s
same,speed of sound,"300 K, 568.68 kPa",421.02 ± 0.25 m/s
same,kinematic viscosity,"300 K, 569.79 kPa",2.45e-06 ± 4.4e-08 m2/s
same,speed of sound,"300 K, 569.79 kPa",420.63 ± 0.25 m/s
same,kinematic viscosity,"300 K, 676.75 kPa",2.03e-06 ± 2.4e-08 m2/s
same,speed of sound,"300 K, 676.75 kPa",417.61 ± 0.25 m/s
same,kinematic viscosity,"300 K, 692.8 kPa",1.98e-06 ± 5.6e-08 m2/s
same,speed of sound,"300 K, 692.8 kPa",416.7 ± 0.25 m/s
same,kinematic viscosity,"300 K, 802.37 kPa",1.71e-06 ± 2.6e-08 m2/s
same,speed of sound,"300 K, 802.37 kPa",413.01 ± 0.25 m/s
same,kinematic viscosity,"300 K, 802.82 kPa",1.7e-06 ± 2e-08 m2/s
same,speed of sound,"300 K, 802.82 kPa",413.38 ± 0.25 m/s
same,kinematic viscosity,"315 K, 250.83 kPa",6.41e-06 ± 7.8e-08 m2/s
same,speed of sound,"315 K, 250.83 kPa",441.42 ± 0.27 m/s
same,kinematic viscosity,"315 K, 378.83 kPa",4.19e-06 ± 6.8e-08 m2/s
same,speed of sound,"315 K, 378.83 kPa",438.52 ± 0.26 m/s
same,kinematic viscosity,"315 K, 506.43 kPa",3.08e-06 ± 3.7e-08 m2/s
same,speed of sound,"315 K, 506.43 kPa",435.46 ± 0.26 m/s
same,kinematic viscosity,"315 K, 661.04 kPa",2.34e-06 ± 2.8e-08 m2/s
same,speed of sound,"315 K, 661.04 kPa",431.69 ± 0.26 m/s
same,kinematic viscosity,"315 K, 791.02 kPa",1.92e-06 ± 2.3e-08 m2/s
same,speed of sound,"315 K, 791.02 kPa",428.35 ± 0.26 m/s
same,kinematic viscosity,"315 K, 938.74 kPa",1.59e-06 ± 1.9e-08 m2/s
same,speed of sound,"315 K, 938.74 kPa",424.43 ± 0.26 m/s
same,kinematic viscosity,"315 K, 1080.9 kPa",1.36e-06 ± 1.6e-08 m2/s
same,speed of sound,"315 K, 1080.9 kPa",420.46 ± 0.25 m/s
same,kinematic viscosity,"315 K, 1285 kPa",1.13e-06 ± 1.4e-08 m2/s
same,speed of sound,"315 K, 1285 kPa",414.39 ± 0.25 m/s
same,kinematic viscosity,"330 K, 308.27 kPa",5.77e-06 ± 1.5e-07 m2/s
same,speed of sound,"330 K, 308.27 kPa",450.9 ± 0.27 m/s
same,kinematic viscosity,"330 K, 473.84 kPa",3.68e-06 ± 4.4e-08 m2/s
same,speed of sound,"330 K, 473.84 kPa",447.68 ± 0.27 m/s
same,kinematic viscosity,"330 K, 664.29 kPa",2.58e-06 ± 3.1e-08 m2/s
same,speed of sound,"330 K, 664.29 kPa",443.84 ± 0.27 m/s
same,kinematic viscosity,"330 K, 822.59 kPa",2.06e-06 ± 2.5e-08 m2/s
same,speed of sound,"330 K, 822.59 kPa",440.54 ± 0.27 m/s
same,kinematic viscosity,"330 K, 977.41 kPa",1.71e-06 ± 2.1e-08 m2/s
same,speed of sound,"330 K, 977.41 kPa",437.21 ± 0.26 m/s
same,kinematic viscosity,"330 K, 1142.1 kPa",1.44e-06 ± 1.7e-08 m2/s
same,speed of sound,"330 K, 1142.1 kPa",433.54 ± 0.26 m/s
same,kinematic viscosity,"330 K, 1294.8 kPa",1.25e-06 ± 1.5e-08 m2/s
same,speed of sound,"330 K, 1294.8 kPa",430.01 ± 0.26 m/s
same,kinematic viscosity,"330 K, 1480.5 kPa",1.08e-06 ± 1.3e-08 m2/s
same,speed of sound,"330 K, 1480.5 kPa",425.54 ± 0.26 m/s
same,kinematic viscosity,"330 K, 1640.8 kPa",9.57e-07 ± 1.2e-08 m2/s
same,speed of sound,"330 K, 1640.8 kPa",421.5 ± 0.25 m/s
same,kinematic viscosity,"330 K, 1792 kPa",8.66e-07 ± 1e-08 m2/s
same,speed of sound,"330 K, 1792 kPa",417.52 ± 0.25 m/s
same,kinematic viscosity,"330 K, 1945.8 kPa",7.91e-07 ± 9.5e-09 m2/s
same,speed of sound,"330 K, 1945.8 kPa",413.28 ± 0.25 m/s
same,kinematic viscosity,"345 K, 297.74 kPa",6.5e-06 ± 7.8e-08 m2/s
same,speed of sound,"345 K, 297.74 kPa",461.31 ± 0.28 m/s
same,kinematic viscosity,"345 K, 504.54 kPa",3.78e-06 ± 4.5e-08 m2/s
same,speed of sound,"345 K, 504.54 kPa",457.91 ± 0.28 m/s
same,kinematic viscosity,"345 K, 708.88 kPa",2.67e-06 ± 3.2e-08 m2/s
same,speed of sound,"345 K, 708.88 kPa",454.47 ± 0.27 m/s
same,kinematic viscosity,"345 K, 914.14 kPa",2.04e-06 ± 2.5e-08 m2/s
same,speed of sound,"345 K, 914.14 kPa",450.88 ± 0.27 m/s
same,kinematic viscosity,"345 K, 1123.2 kPa",1.64e-06 ± 2e-08 m2/s
same,speed of sound,"345 K, 1123.2 kPa",447.09 ± 0.27 m/s
same,kinematic viscosity,"345 K, 1332.1 kPa",1.36e-06 ± 1.6e-08 m2/s
same,speed of sound,"345 K, 1332.1 kPa",443.17 ± 0.27 m/s
same,kinematic viscosity,"345 K, 1537 kPa",1.16e-06 ± 1.4e-08 m2/s
same,speed of sound,"345 K, 1537 kPa",439.19 ± 0.26 m/s
same,kinematic viscosity,"345 K, 1744.6 kPa",1e-06 ± 1.2e-08 m2/s
same,speed of sound,"345 K, 1744.6 kPa",435.01 ± 0.26 m/s
same,kinematic viscosity,"345 K, 1955.1 kPa",8.8e-07 ± 1.1e-08 m2/s
same,speed of sound,"345 K, 1955.1 kPa",430.58 ± 0.26 m/s
same,kinematic viscosity,"345 K, 2315.6 kPa",7.21e-07 ± 8.7e-09 m2/s
same,speed of sound,"345 K, 2315.6 kPa",422.55 ± 0.25 m/s
same,kinematic viscosity,"345 K, 2530 kPa",6.5e-07 ± 7.8e-09 m2/s
same,speed of sound,"345 K, 2530 kPa",417.46 ± 0.25 m/s
same,kinematic viscosity,"345 K, 2769 kPa",5.84e-07 ± 7e-09 m2/s
same,speed of sound,"345 K, 2769 kPa",411.45 ± 0.25 m/s
same,kinematic viscosity,"360 K, 242.7 kPa",8.74e-06 ± 1.1e-07 m2/s
same,speed of sound,"360 K, 242.7 kPa",471.71 ± 0.28 m/s
same,kinematic viscosity,"360 K, 453.28 kPa",4.68e-06 ± 8.2e-08 m2/s
same,speed of sound,"360 K, 453.28 kPa",468.86 ± 0.28 m/s
same,kinematic viscosity,"360 K, 661.35 kPa",3.16e-06 ± 3.8e-08 m2/s
same,speed of sound,"360 K, 661.35 kPa",465.91 ± 0.28 m/s
same,kinematic viscosity,"360 K, 865.15 kPa",2.39e-06 ± 2.9e-08 m2/s
same,speed of sound,"360 K, 865.15 kPa",462.91 ± 0.28 m/s
same,kinematic viscosity,"360 K, 1069.7 kPa",1.9e-06 ± 2.3e-08 m2/s
same,speed of sound,"360 K, 1069.7 kPa",459.84 ± 0.28 m/s
same,kinematic viscosity,"360 K, 1277.8 kPa",1.57e-06 ± 1.9e-08 m2/s
same,speed of sound,"360 K, 1277.8 kPa",456.62 ± 0.27 m/s
same,kinematic viscosity,"360 K, 1481.2 kPa",1.34e-06 ± 1.6e-08 m2/s
same,speed of sound,"360 K, 1481.2 kPa",453.38 ± 0.27 m/s
same,kinematic viscosity,"360 K, 1690.7 kPa",1.16e-06 ± 1.4e-08 m2/s
same,speed of sound,"360 K, 1690.7 kPa",449.97 ± 0.27 m/s
same,kinematic viscosity,"360 K, 1894.8 kPa",1.02e-06 ± 1.2e-08 m2/s
same,speed of sound,"360 K, 1894.8 kPa",446.53 ± 0.27 m/s
same,kinematic viscosity,"360 K, 2277.4 kPa",8.28e-07 ± 9.9e-09 m2/s
same,speed of sound,"360 K, 2277.4 kPa",439.83 ± 0.27 m/s
same,kinematic viscosity,"360 K, 2480.7 kPa",7.49e-07 ± 9e-09 m2/s
same,speed of sound,"360 K, 2480.7 kPa",436.1 ± 0.26 m/s
same,kinematic viscosity,"360 K, 2738.8 kPa",6.66e-07 ± 8e-09 m2/s
same,speed of sound,"360 K, 2738.8 kPa",431.2 ± 0.26 m/s
same,kinematic viscosity,"360 K, 3050.5 kPa",5.85e-07 ± 7e-09 m2/s
same,speed of sound,"360 K, 3050.5 kPa",424.97 ± 0.26 m/s
same,kinematic viscosity,"360 K, 3365.4 kPa",5.19e-07 ± 6.2e-09 m2/s
same,speed of sound,"360 K, 3365.4 kPa",418.3 ± 0.25 m/s
same,kinematic viscosity,"375 K, 260.57 kPa",1.01e-05 ± 3.8e-06 m2/s
same,speed of sound,"375 K, 260.57 kPa",480.64 ± 1.5 m/s
same,kinematic viscosity,"375 K, 483.31 kPa",4.9e-06 ± 8e-07 m2/s
same,speed of sound,"375 K, 483.31 kPa",478.26 ± 0.4 m/s
same,kinematic viscosity,"375 K, 684.74 kPa",3.42e-06 ± 2.2e-07 m2/s
same,speed of sound,"375 K, 684.74 kPa",475.65 ± 0.29 m/s
same,kinematic viscosity,"375 K, 897.66 kPa",2.57e-06 ± 6e-08 m2/s
same,speed of sound,"375 K, 897.66 kPa",473 ± 0.28 m/s
same,kinematic viscosity,"375 K, 1130.7 kPa",1.96e-06 ± 6.8e-08 m2/s
same,speed of sound,"375 K, 1130.7 kPa",469.93 ± 0.28 m/s
same,kinematic viscosity,"375 K, 1341.7 kPa",1.63e-06 ± 4.2e-08 m2/s
same,speed of sound,"375 K, 1341.7 kPa",467.14 ± 0.28 m/s
same,kinematic viscosity,"375 K, 1583.8 kPa",1.37e-06 ± 1.6e-08 m2/s
same,speed of sound,"375 K, 1583.8 kPa",463.89 ± 0.28 m/s
same,kinematic viscosity,"375 K, 1793.4 kPa",1.2e-06 ± 2e-08 m2/s
same,speed of sound,"375 K, 1793.4 kPa",461.01 ± 0.28 m/s
same,kinematic viscosity,"375 K, 2026.3 kPa",1.04e-06 ± 1.4e-08 m2/s
same,speed of sound,"375 K, 2026.3 kPa",457.7 ± 0.28 m/s
same,kinematic viscosity,"375 K, 2290.4 kPa",9.12e-07 ± 1.1e-08 m2/s
same,speed of sound,"375 K, 2290.4 kPa",453.87 ± 0.27 m/s
same,kinematic viscosity,"375 K, 2599.9 kPa",7.94e-07 ± 1.2e-08 m2/s
same,speed of sound,"375 K, 2599.9 kPa",449.23 ± 0.27 m/s
same,kinematic viscosity,"375 K, 2933.1 kPa",6.9e-07 ± 8.3e-09 m2/s
same,speed of sound,"375 K, 2933.1 kPa",444.04 ± 0.27 m/s
same,kinematic viscosity,"375 K, 3140.5 kPa",6.38e-07 ± 8.2e-09 m2/s
same,speed of sound,"375 K, 3140.5 kPa",440.69 ± 0.27 m/s
same,kinematic viscosity,"375 K, 3379.2 kPa",5.88e-07 ± 9e-09 m2/s
same,speed of sound,"375 K, 3379.2 kPa",436.74 ± 0.26 m/s
